The target of test [1] is T1, ROS1 (Homo sapiens, UniProt P08922).
T1 construct: purchased Carna Biosciences 08-163
Briefly: ROS1 kinase inhibitory activity evaluation (mobility shift, EZ Reader II). The test is classed as biochemical. As to conditions: ROS1 25 pg/μL, FL-Peptide 22 substrate, three separate measurements. The method, then:
Next, a substrate reaction solution was prepared. […] Then, the reaction stop solution was added thereto at a concentration of 40 μL/well. Substrate phosphorylation intensity was measured using EZ Reader II (Caliper Life Sciences).

The target in test [2] is T1, ROS1. Briefly: ROS1 autophosphorylation inhibitory activity evaluation (ADP-Glo). The test is classed as biochemical. The settings on record: 200 nM inactive ROS1, ATP 1 mM, 25° C. 1.5 hours, ADP generated, four separate measurements. A digest of the protocol:
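IC50 was derived by curve fitting of ADP output measured with ADP-Glo reagents. The output reflects ROS1 self-phosphorylation over 1.5 hours at 25° C. Buffer was HEPES pH 7.5 with MgCl2, Brij-58 and DTT, and ATP was 1 mM final.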
A general note: In ADP-Glo the light output rises with the ADP produced.

The target of test [3] is T2, NTRK1 (Homo sapiens, UniProt P04629).
T2 construct: purchased Carna Biosciences 08-186
T2 sequence (P04629 33-796): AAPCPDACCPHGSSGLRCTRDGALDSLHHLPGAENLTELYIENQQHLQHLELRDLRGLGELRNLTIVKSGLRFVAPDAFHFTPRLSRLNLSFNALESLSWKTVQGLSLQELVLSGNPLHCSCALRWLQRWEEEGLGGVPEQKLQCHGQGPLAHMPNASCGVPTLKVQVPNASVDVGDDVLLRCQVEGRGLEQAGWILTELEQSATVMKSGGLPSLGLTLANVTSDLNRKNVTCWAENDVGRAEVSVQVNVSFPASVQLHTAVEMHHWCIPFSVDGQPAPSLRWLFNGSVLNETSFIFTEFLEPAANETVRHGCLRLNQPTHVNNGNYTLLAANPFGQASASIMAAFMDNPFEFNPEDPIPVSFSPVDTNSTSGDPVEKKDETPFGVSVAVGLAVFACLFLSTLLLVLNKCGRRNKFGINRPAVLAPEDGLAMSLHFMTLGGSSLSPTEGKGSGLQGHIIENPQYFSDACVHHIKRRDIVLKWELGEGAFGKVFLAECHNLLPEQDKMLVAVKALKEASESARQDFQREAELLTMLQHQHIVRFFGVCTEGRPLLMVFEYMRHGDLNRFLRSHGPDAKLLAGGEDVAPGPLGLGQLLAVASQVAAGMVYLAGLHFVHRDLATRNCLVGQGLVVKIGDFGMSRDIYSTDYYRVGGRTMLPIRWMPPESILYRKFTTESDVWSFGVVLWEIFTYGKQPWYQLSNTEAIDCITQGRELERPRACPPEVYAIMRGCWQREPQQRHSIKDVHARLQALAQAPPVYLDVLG
Briefly: NTRK kinase enzyme inhibitory activity evaluation, NTRK1. It counts as biochemical. As to conditions: FL-Peptide 27 substrate, ATP Km=33 μM, three separate measurements. As for the experimental part: (§1) NTRK1, NTRK2, and NTRK3 kinase solutions were each prepared. […]; Next, a substrate reaction solution was prepared.
(§2) Subsequently, a reaction stop solution was prepared. The composition is as follows: 100 mM HEPES (pH 7.4), 0.015% Brij-35, 40 mM EDTA, and 0.1% Coating Reagent 3 (Caliper Life Sciences #760050).
(§3) The NTRK1, NTRK2, and NTRK3 kinase solutions were each added at a concentration of 19 μL/well to a 96-well plate. Each compound for evaluation dissolved in DMSO to achieve each final concentration was added to the plate, mixed using a plate mixer, and then preincubated at room temperature for 20 minutes. […] Then, the reaction stop solution was added thereto at a concentration of 40 μL/well. Substrate phosphorylation intensity was measured using EZ Reader II (Caliper Life Sciences). IC50 values were calculated by curve fitting using Microsoft Excel 2010 on the basis of data obtained from three separate measurements.

The target of test [4] is T3, NTRK2 (Homo sapiens, UniProt Q16620).
T3 construct: purchased Carna Biosciences 08-187
T3 sequence (Q16620 32-822): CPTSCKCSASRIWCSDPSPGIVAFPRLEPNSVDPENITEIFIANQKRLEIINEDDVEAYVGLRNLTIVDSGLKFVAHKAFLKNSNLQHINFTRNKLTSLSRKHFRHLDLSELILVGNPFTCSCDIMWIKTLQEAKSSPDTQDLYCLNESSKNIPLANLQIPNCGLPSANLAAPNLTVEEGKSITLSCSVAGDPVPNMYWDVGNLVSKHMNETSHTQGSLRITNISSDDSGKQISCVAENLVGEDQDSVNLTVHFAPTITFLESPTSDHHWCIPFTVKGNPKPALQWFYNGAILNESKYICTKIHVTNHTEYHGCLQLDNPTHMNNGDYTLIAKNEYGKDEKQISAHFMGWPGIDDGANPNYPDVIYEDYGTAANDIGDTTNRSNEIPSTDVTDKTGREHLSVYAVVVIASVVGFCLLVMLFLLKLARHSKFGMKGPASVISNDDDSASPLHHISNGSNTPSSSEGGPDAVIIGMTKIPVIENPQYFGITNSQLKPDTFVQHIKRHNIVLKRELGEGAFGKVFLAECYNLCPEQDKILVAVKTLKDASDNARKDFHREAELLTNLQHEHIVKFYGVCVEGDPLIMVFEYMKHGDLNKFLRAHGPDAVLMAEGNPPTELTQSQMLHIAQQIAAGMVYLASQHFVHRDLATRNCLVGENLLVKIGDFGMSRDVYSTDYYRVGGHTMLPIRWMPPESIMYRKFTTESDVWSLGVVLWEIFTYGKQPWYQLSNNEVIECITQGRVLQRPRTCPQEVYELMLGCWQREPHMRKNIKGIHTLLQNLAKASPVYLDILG
Description: NTRK kinase enzyme inhibitory activity evaluation, NTRK2. The test is classed as biochemical. The settings on record: FL-Peptide 27 substrate, ATP Km=63 μM, three separate measurements. The method, then:
as §1, §2, §3

The target in test [5] is T4, NTRK3 (Homo sapiens, UniProt Q16288).
T4 construct: purchased Carna Biosciences 08-197
T4 sequence (Q16288 32-839): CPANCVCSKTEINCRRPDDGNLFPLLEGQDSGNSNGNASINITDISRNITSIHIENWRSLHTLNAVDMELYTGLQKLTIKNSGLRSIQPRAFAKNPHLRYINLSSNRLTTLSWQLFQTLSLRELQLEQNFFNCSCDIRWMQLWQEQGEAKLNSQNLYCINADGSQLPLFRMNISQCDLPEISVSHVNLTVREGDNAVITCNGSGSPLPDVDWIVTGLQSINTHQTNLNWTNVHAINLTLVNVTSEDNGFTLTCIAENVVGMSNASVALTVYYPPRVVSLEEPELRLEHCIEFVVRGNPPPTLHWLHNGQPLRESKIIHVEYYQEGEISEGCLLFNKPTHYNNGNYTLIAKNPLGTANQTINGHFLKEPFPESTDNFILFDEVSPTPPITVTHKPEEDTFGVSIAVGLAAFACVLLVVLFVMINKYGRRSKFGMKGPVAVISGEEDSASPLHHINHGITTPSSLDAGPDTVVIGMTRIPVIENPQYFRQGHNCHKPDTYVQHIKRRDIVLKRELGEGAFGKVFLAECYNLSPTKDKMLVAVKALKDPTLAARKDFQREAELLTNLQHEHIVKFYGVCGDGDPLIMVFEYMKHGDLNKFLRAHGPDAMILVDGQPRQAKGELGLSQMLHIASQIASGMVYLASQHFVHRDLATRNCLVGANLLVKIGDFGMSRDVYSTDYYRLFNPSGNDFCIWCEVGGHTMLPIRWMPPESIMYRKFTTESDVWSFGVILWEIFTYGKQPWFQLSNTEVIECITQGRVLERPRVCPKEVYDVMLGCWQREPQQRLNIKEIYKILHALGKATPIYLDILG
Description: NTRK kinase enzyme inhibitory activity evaluation, NTRK3. It counts as biochemical. The settings on record: FL-Peptide 27 substrate, ATP Km=32 μM, three separate measurements. As for the experimental part:
as §1, §2, §3

Test [6] deals with HCC78 cells having ROS1 fusion gene. Briefly: HCC78 cell growth assay (CellTiter-Glo). It counts as cell-based. As to conditions: Homo sapiens, HCC78, 72 h, 72 hours culture, 2% FBS medium, luminescence, four separate measurements; read-out: growth inhibitory effect on HCC78 cells having ROS1 fusion gene IC50.

pIC50: −log10 of the molar value.

T1 sequence (P08922 28-2347): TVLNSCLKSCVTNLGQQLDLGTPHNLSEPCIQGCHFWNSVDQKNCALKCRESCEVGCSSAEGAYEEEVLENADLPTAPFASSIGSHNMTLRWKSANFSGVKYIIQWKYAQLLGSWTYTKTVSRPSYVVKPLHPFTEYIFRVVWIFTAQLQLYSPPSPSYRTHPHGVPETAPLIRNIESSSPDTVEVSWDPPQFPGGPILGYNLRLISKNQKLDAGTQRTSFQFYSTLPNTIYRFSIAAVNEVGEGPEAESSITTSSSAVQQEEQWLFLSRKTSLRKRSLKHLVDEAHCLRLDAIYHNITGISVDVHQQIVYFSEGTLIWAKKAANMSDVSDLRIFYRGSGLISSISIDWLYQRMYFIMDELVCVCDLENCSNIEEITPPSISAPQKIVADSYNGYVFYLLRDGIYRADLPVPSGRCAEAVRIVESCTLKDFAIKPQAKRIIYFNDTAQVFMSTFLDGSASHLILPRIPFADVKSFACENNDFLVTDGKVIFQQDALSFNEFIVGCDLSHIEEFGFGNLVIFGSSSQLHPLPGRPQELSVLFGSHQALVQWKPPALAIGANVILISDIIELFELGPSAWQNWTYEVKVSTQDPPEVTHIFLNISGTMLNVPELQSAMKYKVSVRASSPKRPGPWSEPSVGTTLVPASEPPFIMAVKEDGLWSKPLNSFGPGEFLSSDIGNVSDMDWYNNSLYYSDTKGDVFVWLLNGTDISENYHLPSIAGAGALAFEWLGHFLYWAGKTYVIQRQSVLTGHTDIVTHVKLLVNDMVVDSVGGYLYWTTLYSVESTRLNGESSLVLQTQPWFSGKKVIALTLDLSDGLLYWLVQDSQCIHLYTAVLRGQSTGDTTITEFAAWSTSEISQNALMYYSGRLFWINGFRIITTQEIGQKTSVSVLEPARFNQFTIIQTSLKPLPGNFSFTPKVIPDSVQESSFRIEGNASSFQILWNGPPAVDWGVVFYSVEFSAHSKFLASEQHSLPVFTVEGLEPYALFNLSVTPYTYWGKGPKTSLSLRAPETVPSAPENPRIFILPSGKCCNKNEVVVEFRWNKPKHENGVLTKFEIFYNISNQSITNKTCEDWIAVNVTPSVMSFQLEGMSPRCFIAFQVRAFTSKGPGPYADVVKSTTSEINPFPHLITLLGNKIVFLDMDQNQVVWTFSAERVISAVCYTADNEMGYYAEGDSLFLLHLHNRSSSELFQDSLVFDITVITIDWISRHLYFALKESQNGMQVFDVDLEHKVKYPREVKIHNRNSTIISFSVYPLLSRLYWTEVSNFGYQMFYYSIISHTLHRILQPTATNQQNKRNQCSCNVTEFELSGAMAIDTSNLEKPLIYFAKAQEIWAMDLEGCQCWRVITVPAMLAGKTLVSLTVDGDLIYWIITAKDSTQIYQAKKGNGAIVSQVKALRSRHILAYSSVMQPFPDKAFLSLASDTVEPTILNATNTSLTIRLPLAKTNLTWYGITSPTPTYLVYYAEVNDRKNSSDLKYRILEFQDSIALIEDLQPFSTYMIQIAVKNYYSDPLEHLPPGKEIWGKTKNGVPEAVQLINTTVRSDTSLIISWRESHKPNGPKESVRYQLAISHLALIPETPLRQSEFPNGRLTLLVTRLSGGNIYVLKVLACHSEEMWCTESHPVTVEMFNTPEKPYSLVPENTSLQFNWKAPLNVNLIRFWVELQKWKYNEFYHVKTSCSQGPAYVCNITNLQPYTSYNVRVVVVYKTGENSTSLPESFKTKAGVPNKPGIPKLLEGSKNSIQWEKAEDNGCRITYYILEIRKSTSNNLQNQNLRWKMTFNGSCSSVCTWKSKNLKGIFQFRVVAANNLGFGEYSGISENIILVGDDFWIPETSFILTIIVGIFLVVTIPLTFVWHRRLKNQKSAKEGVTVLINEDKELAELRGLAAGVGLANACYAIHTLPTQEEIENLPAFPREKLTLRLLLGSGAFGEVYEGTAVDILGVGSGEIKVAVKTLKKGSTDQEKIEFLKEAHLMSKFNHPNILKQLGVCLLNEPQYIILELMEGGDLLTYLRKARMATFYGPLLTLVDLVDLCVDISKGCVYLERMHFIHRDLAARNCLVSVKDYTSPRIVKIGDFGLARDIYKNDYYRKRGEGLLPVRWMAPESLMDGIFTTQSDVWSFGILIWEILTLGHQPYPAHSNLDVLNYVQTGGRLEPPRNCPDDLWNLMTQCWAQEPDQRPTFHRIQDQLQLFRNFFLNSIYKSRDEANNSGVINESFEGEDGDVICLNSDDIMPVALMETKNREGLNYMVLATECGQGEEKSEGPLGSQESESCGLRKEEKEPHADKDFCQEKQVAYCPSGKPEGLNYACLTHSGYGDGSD

Take `C[C@@H](Oc1ccc2ncc(-c3ccc(N4C[C@@H](N)CC4=O)nc3)n2n1)c1cccc(F)c1` [Example 127, (4S)-4-Amino-1-[5-[6-[(1R)-1-(3-fluorophenyl)ethoxy]imidazo[1,2-b]pyridazin-3-yl]-2-pyridyl]pyrrolidin-2-one]: the pIC50 in test [1] was above 9.00; in test [2] it was above 7.70; in test [3], 7.82 to 8.00; in test [4], 7.60 to 7.70; in test [5] it was 8.00 to 8.30; in test [6], 7.00 to 7.70.

Broadly, the pIC50 is the IC50 on a negative log10 scale, so that one unit is a factor of ten.

The record behind these values is US9751887B2, “Imidazo[1,2-b]pyridazine derivatives as kinase inhibitors” (Daiichi Sankyo Company, Limited, priority 2012, dated 2017).
